Data as given in patent publication US9226891B2, “Anti-flush compositions” (Vitalis LLC, priority 2011, dated 2016).

How the values were obtained:
[1] = GI-absorbed aspirin; cited from earlier work
[2] = test system: flushing side effect of niacin; experiment: Example 1: flush rating on the Global Flush Severity Scale (GFSS) after niacin, with or without aspirin; assay type: in vivo, human; conditions: for reduction of flush severity (GFSS) from Period I: vs niacin alone
Experimental: Healthy human patients were recruited for this study. […] Each patient was asked to rate his or her flush on the Global Flush Severity Scale (GFSS) (see FIG. 1 and Paolini et al. Int. J. Clin. Pract. 62(6):896-904 (2008)), when the flush completely resolved. The Global Flushing Severity Score measures, overall, in the previous 24 hours, how each patient rates the flushing symptoms, including redness, warmth, tingling, and itchiness of the skin. […] After the flush completely resolved, then each patient recorded his or her GFSS flush rating. Not until at least two days later did Period III start. At Period III, each patient was asked to not swallow the orally administered aspirin (81 mg) but to allow the aspirin to be absorbed through the oral mucosa. The aspirin was in powdered form and the remaining aspirin in the mouth was washed out with water. […] Still, the flush was rated (GFSS) after it was resolved. […] The flush was then rated (GFSS) after it completely resolved.

## CC(=O)Oc1ccccc1C(=O)O [aspirin]
[1]
  time to peak aspirin serum level following administration: 15 to 20 min
[2]; Period II: 81 mg aspirin swallowed + 500 mg niacin
  reduction of flush severity (GFSS) from Period I: 18%
[2]; Period II: 81 mg aspirin swallowed, followed by 500 mg niacin
  Global Flush Severity Scale (GFSS) average score: 6.88
[2]; Period III: 81 mg aspirin mucosally absorbed (not swallowed), then 500 mg niacin
  Global Flush Severity Scale (GFSS) average score: 5.06
[2]; Period III: 81 mg aspirin mucosally absorbed + 500 mg niacin
  reduction of flush severity (GFSS) from Period I: 40%
[2]; Period IV: 81 mg aspirin half mucosally absorbed and half swallowed, then 500 mg niacin
  Global Flush Severity Scale (GFSS) average score: 3.94
[2]; Period IV: 81 mg aspirin half mucosally absorbed, half swallowed + 500 mg niacin
  reduction of flush severity (GFSS) from Period I: 53%
